# Activity calls are given as the source filed them. The rule behind the calls is not given here.
# Experiments:
# HK-2 [1] = assay: Anti-fibrotic activity in TGFbeta-1-treated HK-2 cells assessed as Col4A1 mRNA level at 10 uM incubated for 24 to 48 hrs by qPCR analysis (reference value: 2.54 +/- 0.24); assay type: functional, Homo sapiens; details: time 24-48 hrs
# HK-2 [2] = assay: Anti-fibrotic activity in TGFbeta-1-treated HK-2 cells assessed as vimentin mRNA level at 10 uM incubated for 24 to 48 hrs by qPCR analysis (reference value: 3.73 +/- 0.47); assay type: functional, Homo sapiens; details: time 24-48 hrs
# HK-2 [3] = assay: Anti-fibrotic activity in TGFbeta-1-treated HK-2 cells assessed as fibronectin mRNA level at 10 uM incubated for 24 to 48 hrs by qPCR analysis (reference value: 11.31 +/- 2.49); assay type: functional, Homo sapiens; details: time 24-48 hrs
# HK-2 [4] = assay: Anti-fibrotic activity in TGFbeta-1-treated HK-2 cells assessed as decrease in fibronectin level at 5 to 10 uM incubated for 24 to 48 hrs by Western blot analysis; assay type: functional, cell-based; details: Homo sapiens, dose 5-10 µM, time 24-48 hrs
# HK-2 [5] = assay: Anti-fibrotic activity in TGFbeta-1-treated HK-2 cells assessed as decrease in alpha-SMA level at 1 uM incubated for 24 to 48 hrs by Western blot analysis; assay type: functional, cell-based; details: Homo sapiens, time 24-48 hrs
# HK-2 [6] = assay: Anti-fibrotic activity in TGFbeta-1-treated HK-2 cells assessed as Col4A1 mRNA level at 10 uM incubated for 24 to 48 hrs by qPCR analysis (reference value: 2.35 +/- 0.38); assay type: functional, Homo sapiens; details: time 24-48 hrs
# HK-2 [7] = assay: Anti-fibrotic activity in TGFbeta-1-treated HK-2 cells assessed as vimentin mRNA level at 10 uM incubated for 24 to 48 hrs by qPCR analysis (reference value: 1.88 +/- 0.48); assay type: functional, Homo sapiens; details: time 24-48 hrs
# HK-2 [8] = assay: Anti-fibrotic activity in TGFbeta-1-treated HK-2 cells assessed as fibronectin mRNA level at 10 uM incubated for 24 to 48 hrs by qPCR analysis (reference value: 6.88); assay type: functional, Homo sapiens; details: time 24-48 hrs
# HK-2 [9] = assay: Anti-fibrotic activity in TGFbeta-1-treated HK-2 cells assessed as decrease in Col4A1 level at 1 uM incubated for 24 to 48 hrs by Western blot analysis; assay type: functional, cell-based; details: Homo sapiens, time 24-48 hrs
# HK-2 [10] = assay: Anti-fibrotic activity in TGFbeta-1-treated HK-2 cells assessed as decrease in vimentin level at 1 uM incubated for 24 to 48 hrs by Western blot analysis; assay type: functional, cell-based; details: Homo sapiens, time 24-48 hrs
# HK-2 [11] = assay: Anti-fibrotic activity in TGFbeta-1-treated HK-2 cells assessed as decrease in fibronectin level at 1 uM incubated for 24 to 48 hrs by Western blot analysis; assay type: functional, cell-based; details: Homo sapiens, time 24-48 hrs
# HK-2 [12] = assay: Cytotoxicity against TGFbeta-1-treated HK-2 cells assessed as decrease in cell viability at 1 to 5 uM incubated for 48 hrs by Cell Titer-Glo assay; assay type: toxicity, cell-based; details: human, hk-2, 48 h, dose 1-5 µM
# [13] = Cytotoxicity against TGFbeta-1-treated HK-2 cells assessed as cell viability at 10 uM incubated for 48 hrs by Cell Titer-Glo assay (Rvb ~ 80 %); assay type: toxicity, cell-based; details: human, read-out: Activity
# HK-2 [14] = assay: Anti-fibrotic activity in HK-2 cell model of 10 ng/ml TGFbeta-1-induced fibrosis injury assessed as Col4A1 mRNA level at 10 uM incubated for 24 to 48 hrs by qPCR analysis (reference value: 2.44 +/- 0.21); assay type: functional, Homo sapiens; details: time 24-48 hrs
# HK-2 [15] = assay: Anti-fibrotic activity in HK-2 cell model of 10 ng/ml TGFbeta-1-induced fibrosis injury assessed as Col4A1 mRNA level at 20 uM incubated for 24 to 48 hrs by qPCR analysis (reference value: 2.44 +/- 0.21); assay type: functional, Homo sapiens; details: time 24-48 hrs
# HK-2 [16] = assay: Anti-fibrotic activity in HK-2 cell model of 20 ng/ml TGFbeta-1-induced fibrosis injury assessed as Col4A1 mRNA level at 10 uM incubated for 24 to 48 hrs by qPCR analysis (reference value: 8.96 +/- 0.96); assay type: functional, Homo sapiens; details: time 24-48 hrs
# HK-2 [17] = assay: Anti-fibrotic activity in HK-2 cell model of 20 ng/ml TGFbeta-1-induced fibrosis injury assessed as Col4A1 mRNA level at 20 uM incubated for 24 to 48 hrs by qPCR analysis (reference value: 8.96 +/- 0.96); assay type: functional, Homo sapiens; details: time 24-48 hrs
# HK-2 [18] = assay: Anti-fibrotic activity in HK-2 cell model of 10 ng/ml TGFbeta-1-induced fibrosis injury assessed as vimentin mRNA level at 10 uM incubated for 24 to 48 hrs by qPCR analysis (reference value: 1.41 +/- 0.1); assay type: functional, Homo sapiens; details: time 24-48 hrs
# HK-2 [19] = assay: Anti-fibrotic activity in HK-2 cell model of 10 ng/ml TGFbeta-1-induced fibrosis injury assessed as vimentin mRNA level at 20 uM incubated for 24 to 48 hrs by qPCR analysis (reference value: 1.41 +/- 0.1); assay type: functional, Homo sapiens; details: time 24-48 hrs
# HK-2 [20] = assay: Anti-fibrotic activity in HK-2 cell model of 20 ng/ml TGFbeta-1-induced fibrosis injury assessed as vimentin mRNA level at 10 uM incubated for 24 to 48 hrs by qPCR analysis (reference value: 3.19 +/- 0.23); assay type: functional, Homo sapiens; details: time 24-48 hrs
# HK-2 [21] = assay: Anti-fibrotic activity in HK-2 cell model of 20 ng/ml TGFbeta-1-induced fibrosis injury assessed as vimentin mRNA level at 20 uM incubated for 24 to 48 hrs by qPCR analysis (reference value: 3.19 +/- 0.23); assay type: functional, Homo sapiens; details: time 24-48 hrs
# HK-2 [22] = assay: Anti-fibrotic activity in TGFbeta-1-treated HK-2 cells assessed as Col4A1 mRNA level at 10 uM incubated for 24 to 48 hrs by qPCR analysis (reference value: 2.81 +/- 0.22); assay type: functional, Homo sapiens; details: time 24-48 hrs
# HK-2 [23] = assay: Anti-fibrotic activity in TGFbeta-1-treated HK-2 cells assessed as vimentin mRNA level at 10 uM incubated for 24 to 48 hrs by qPCR analysis (reference value: 2.2 +/- 0.28); assay type: functional, Homo sapiens; details: time 24-48 hrs
# HK-2 [24] = assay: Anti-fibrotic activity in TGFbeta-1-treated HK-2 cells assessed as fibronectin mRNA level at 10 uM incubated for 24 to 48 hrs by qPCR analysis (reference value: 2.16 +/- 0.31); assay type: functional, Homo sapiens; details: time 24-48 hrs
# HK-2 [25] = assay: Anti-fibrotic activity in TGFbeta-1-treated HK-2 cells assessed as decrease in Col4A1 mRNA level at 10 uM incubated for 24 to 48 hrs by qPCR analysis relative to control; assay type: functional, Homo sapiens; design: scale not given: the % may be the effect or the level left; details: time 24-48 hrs
# HK-2 [26] = assay: Anti-fibrotic activity in TGFbeta-1-treated HK-2 cells assessed as decrease in vimentin mRNA level at 10 uM incubated for 24 to 48 hrs by qPCR analysis relative to control; assay type: functional, Homo sapiens; design: scale not given: the % may be the effect or the level left; details: time 24-48 hrs
# HK-2 [27] = assay: Anti-fibrotic activity in TGFbeta-1-treated HK-2 cells assessed as decrease in fibronectin mRNA level at 10 uM incubated for 24 to 48 hrs by qPCR analysis relative to control; assay type: functional, Homo sapiens; design: scale not given: the % may be the effect or the level left; details: time 24-48 hrs
# HK-2 [28] = assay: Anti-fibrotic activity in TGFbeta-1-treated HK-2 cells assessed as decrease in vimentin level at 1 to 10 uM incubated for 24 to 48 hrs by Western blot analysis; assay type: functional, cell-based; details: Homo sapiens, dose 1-10 µM, time 24-48 hrs
# HK-2 [29] = assay: Anti-fibrotic activity in TGFbeta-1-treated HK-2 cells assessed as decrease in alpha-SMA level at 5 to 10 uM incubated for 24 to 48 hrs by Western blot analysis; assay type: functional, cell-based; details: Homo sapiens, dose 5-10 µM, time 24-48 hrs
smiles,measurement,setting,value
CC(C)=CCC[C@]1(C)Oc2ccc(O)cc2C2=CC(=O)CC[C@H]21 (racemic),Activity,HK-2 [1],0.6
same,Activity,HK-2 [2],0.93
same,Activity,HK-2 [3],0.39
same,Activity,HK-2 [4],Active
same,Activity,HK-2 [5],Active
CC(C)=CCCC1(C)Oc2ccc(O)cc2-c2cc(O)ccc21 (racemic),Activity,HK-2 [6],0.66
same,Activity,HK-2 [7],0.65
same,Activity,HK-2 [8],1
same,Activity,HK-2 [9],Active
same,Activity,HK-2 [10],Active
same,Activity,HK-2 [11],Active
same,Activity,HK-2 [12],Non-toxic
same,"viability at 48 h, 10 µM",[13],70%
same,Activity,HK-2 [14],0.74
same,Activity,HK-2 [15],0.11
same,Activity,HK-2 [16],4.08
same,Activity,HK-2 [17],1.21
same,Activity,HK-2 [18],0.54
same,Activity,HK-2 [19],0.24
same,Activity,HK-2 [20],1.44
same,Activity,HK-2 [21],0.5
CC(C)=CCC[C@]1(C)Oc2ccc(O)cc2C2=CC(=O)CC[C@@H]21 (racemic),Activity,HK-2 [22],1.1
same,Activity,HK-2 [23],1.22
same,Activity,HK-2 [24],0.6
same,Activity,HK-2 [25],<=50%
same,Activity,HK-2 [26],<=50%
same,Activity,HK-2 [27],<=50%
same,Activity,HK-2 [28],Active
same,Activity,HK-2 [29],Active
